Measured values taken from paper PMC7570497, “Design, Synthesis and Functional Analysis of Cyclic Opioid Peptides with Dmt-Tic Pharmacophore” (Molecules, 2020).
Bridge positions count the residues as written; N and C are the ends. Square brackets hold non-standard residues; d marks the D form. Peptide text beside a SMILES is read from it. Phe(2,4-F2) = N[C@@H](Cc1ccc(F)cc1F)C(=O)O; d2Nal = N[C@H](Cc1ccc2ccccc2c1)C(=O)O; Dmt = Cc1cc(O)cc(C)c1C[C@H](N)C(=O)O; Tic = O=C(O)[C@@H]1Cc2ccccc2CN1; dDap = NC[C@@H](N)C(=O)O

How the values were obtained:
[1] = Enzymatic stability in rat brain homogenate; type: in vitro ADME; settings: rat brain homogenate 10 mg protein/mL in Tris.HCl 50 mM pH 7.4; 100 μL homogenate + 100 μL peptide (0.5 mM); 37 °C; 60 min; HPLC area %; three independent experiments; read-out: Enzymatic Stability Area [%]: amount of peptide remained after 60 min incubation with rat brain homogenate
Experimental: The metabolic stability of analogs was assessed in the presence of the rat brain homogenate. All new cyclopeptides remained almost intact after 60 min incubation with the homogenate (Table 1).
Enzymatic degradation studies of the analogs were carried out using rat brain homogenate (10 mg protein/mL). To prepare, the homogenate rat brains were isolated, pooled and homogenized in a Polytron with 20 volumes of Tris.HCl (50 mM, pH 7.4), and the homogenate was then stored at −80°C until use. Aliquots of the homogenate (100 μL) were incubated with 100 μL of peptide (0.5 mM) over 0, 7.5, 15, 22.5, 30, and 60 min at 37 °C, in a final volume of 200 μL. The reaction was stopped at the required time by placing the tube on ice and acidifying the content with 20 μL of HCl (1 M). The aliquots were centrifuged at 20,000× g for 10 min at 4 °C. The supernatants were filtered over Millex-GV syringe filters (Millipore, Billerica, MA, USA) and analyzed by HPLC on a Vydac C18 column (4.6 mm × 250 mm, 5 μm,), using the solvent system of 0.1% TFA in water (A) and 80% acetonitrile in water containing 0.1% TFA (B) and a linear gradient of 0–100% B over 25 min. Three independent experiments for each assay were carried out. The amount of remaining peptide (area %) was calculated.

human KOR = target: T1, human KOR (Homo sapiens, UniProt P41145); test: Calcium mobilization assay, agonist mode, KOR; type: cell-based; settings: for KOR pEC50 (CL95%) / KOR α ± SEM (efficacy, intrinsic activity): CHO cells co-expressing human KOR and Gαqi5, inactive = inactive up to 10 μM, n ≥ 5; for KOR pEC50 (CL95%): Fluo-4 AM, reference agonist dynorphin A, mean ± SEM; for KOR α ± SEM (efficacy, intrinsic activity): ratio of peptide Emax to Emax of dynorphin A
T1 construct: expressed in transfected cells; host or cells: CHO cells (gift from Prof. Girolamo Calo, Ferrara University)
T1 sequence (P41145 whole entry): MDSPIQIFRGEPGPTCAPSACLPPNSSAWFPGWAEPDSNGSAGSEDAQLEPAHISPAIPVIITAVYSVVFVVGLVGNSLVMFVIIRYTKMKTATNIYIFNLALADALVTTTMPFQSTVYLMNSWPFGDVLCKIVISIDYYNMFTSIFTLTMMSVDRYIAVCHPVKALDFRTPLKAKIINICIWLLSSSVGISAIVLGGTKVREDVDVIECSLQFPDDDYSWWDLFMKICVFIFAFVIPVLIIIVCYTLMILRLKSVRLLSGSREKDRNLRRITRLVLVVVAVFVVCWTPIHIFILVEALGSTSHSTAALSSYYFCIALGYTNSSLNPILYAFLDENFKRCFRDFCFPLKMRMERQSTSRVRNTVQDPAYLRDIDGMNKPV
Experimental: (§1) Calcium mobilization assay was performed as reported previously. CHO cells stably co-expressing human MOR or KOR and the C-terminally modified Gαqi5 and CHO cells co-expressing DOR and the GαqG66Di5 protein were used for the tests. Briefly, cells incubated for 24 h in 96-well black, clear-bottom plates were loaded with medium supplemented with probenecid (2.5 mmol/L), calcium-sensitive fluorescent dye Fluo-4 AM (3 μmol/L) and pluronic acid (0.01%) and kept at 37 °C for 30 min. Following aspiration of the loading solution and a washing step, serial dilutions of peptide stock solutions were added. Cells without peptides were treated as the control. […] Ligand efficacy was expressed as intrinsic activity (α) calculated as a ratio of the peptide Emax to Emax of the standard agonist.

human MOR = target: T2, human MOR (Homo sapiens, UniProt P35372); test: Calcium mobilization assay, agonist mode, MOR; type: cell-based; settings: for MOR α ± SEM (efficacy, intrinsic activity): ratio of peptide Emax to Emax of dermorphin
T2 construct: expressed in transfected cells; host or cells: CHO cells (gift from Prof. Girolamo Calo, Ferrara University)
T2 sequence (P35372 whole entry): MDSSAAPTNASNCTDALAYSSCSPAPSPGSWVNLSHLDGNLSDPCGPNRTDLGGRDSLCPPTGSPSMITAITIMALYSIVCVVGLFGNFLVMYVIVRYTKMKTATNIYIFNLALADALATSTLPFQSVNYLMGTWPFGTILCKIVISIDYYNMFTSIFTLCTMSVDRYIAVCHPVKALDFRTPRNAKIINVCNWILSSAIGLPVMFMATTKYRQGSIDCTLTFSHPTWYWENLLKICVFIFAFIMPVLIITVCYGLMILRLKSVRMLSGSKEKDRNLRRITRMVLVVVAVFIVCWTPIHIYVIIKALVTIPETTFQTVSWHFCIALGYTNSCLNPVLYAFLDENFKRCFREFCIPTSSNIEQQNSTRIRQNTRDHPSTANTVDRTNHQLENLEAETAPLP

DOR [2] = target: T3, DOR (Homo sapiens, UniProt P41143); test: Calcium mobilization assay, antagonism of DPDPE at DOR
T3 sequence (P41143 whole entry): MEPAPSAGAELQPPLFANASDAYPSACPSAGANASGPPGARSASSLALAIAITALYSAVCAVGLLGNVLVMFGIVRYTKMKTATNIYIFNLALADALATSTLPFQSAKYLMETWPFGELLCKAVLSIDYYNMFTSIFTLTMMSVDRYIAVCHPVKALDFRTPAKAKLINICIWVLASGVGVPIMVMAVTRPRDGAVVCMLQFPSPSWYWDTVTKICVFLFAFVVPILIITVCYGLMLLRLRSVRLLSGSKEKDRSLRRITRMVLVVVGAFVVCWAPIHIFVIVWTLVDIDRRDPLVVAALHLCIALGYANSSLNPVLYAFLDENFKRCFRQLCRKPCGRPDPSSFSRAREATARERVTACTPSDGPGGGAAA

DOR [3] = target: T3, DOR; test: Calcium mobilization assay, agonist mode, DOR; type: cell-based; set-up: expressed in transfected cells; host or cells: CHO cells (gift from Prof. Girolamo Calo, Ferrara University); settings: CHO cells co-expressing DOR and GαqG66Di5, inactive = inactive up to 10 μM, n ≥ 5; for DOR pEC50 (CL95%): Fluo-4 AM, reference agonist DPDPE, mean ± SEM; for DOR α ± SEM (efficacy, intrinsic activity): ratio of peptide Emax to Emax of DPDPE
Experimental: as §1

[4] = LC-MS elution order in reverse-phase chromatography to estimate lipophilicity; type: physicochemical; settings: LC-MS (XIC); Aeris Peptide XB-C18 and Kinetex Biphenyl columns, identical order on both; gradient 5–80% acetonitrile in water in 10 min, 0.1% HCOOH
Excerpt: The lipophilicity of compounds is often a useful characteristic allowing one to predict or rationalize their interactions with a given receptor [40]. Here, the liquid chromatography–mass spectrometry (LC-MS) procedure was applied to study the elution order of analogs in the reverse-phase chromatography to estimate their lipophilicity. The mixture of peptides 1–6 was run in the same experimental conditions on two types of columns, an Aeris Peptide C18 column and a novel biphenyl stationary phase HPLC column. The biphenyl column can be complementary to a C18 column, as it can engage in π–π interactions with the eluted compound [41]. As expected, peptides were more retained on the biphenyl column, due to the π stacking interactions of their aromatic rings with the solid support.
Figure 1 LC-MS chromatograms (extracted ion currents (XIC)) for peptides 1–6. Panel (A): Aeris Peptide XB-C18 column. Panel (B): Kinetex Biphenyl column. […]
Protected amino acids were purchased from Bachem AG (Bubendorf, Switzerland). p-Methylbenzhydrylamine (MBHA) resin was obtained from Novabiochem (San Diego, CA, USA). Semi-preparative and analytical RP-HPLC was performed using Waters Breeze instrument (Milford, MA, USA) with the dual absorbance detector (Waters 2487) on a Vydac C18 column (22 × 250 mm, 10 μm) and Vydac C18 column (4.6 × 250 mm, 5 μm), respectively. […]

[5] = CHO cells co-expressing human MOR and Gαqi5, inactive = inactive up to 10 μM, n ≥ 5

Row | SMILES | remaining at 1 h, 0.25 mM [1] [%] | KOR pEC50 (CL95%) (human KOR) | KOR α ± SEM (efficacy, intrinsic activity) (human KOR) | EC50 (human MOR) [nM] | MOR α ± SEM (efficacy, intrinsic activity) (human MOR; [5]) | Kb (DOR [2]) [nM] | DOR pEC50 (CL95%) (DOR [3]) | DOR α ± SEM (efficacy, intrinsic activity) (DOR [3]) | MOR pEC50 (CL95%) (human MOR; CHO cells co-expressing human MOR and Gαqi5, Fluo-4 AM, reference agonist dermorphin, inactive = inactive up to 10 μM, mean ± SEM, n ≥ 5) | EC50 (human KOR; read-out: KOR pEC50 (CL95%) (converted)) [nM] | Elution order in reverse-phase chromatography (lipophilicity) [4]
1 | Cc1cc(O)cc(C)c1C[C@H](N)C(=O)N1Cc2ccccc2C[C@H]1C(=O)N[C@@H]1CCCCNC(=O)C[C@@H](C(N)=O)NC(=O)[C@@H](Cc2ccc3ccccc3c2)NC(=O)[C@H](Cc2ccccc2)NC1=O [compound 2, Dmt-Tic-c[D-Lys-Phe-D-2Nal-Asp]NH2] (H-[Dmt][Tic][dK]F[d2Nal]D-NH2; lactam 3-6) | 98.17 ± 0.23 | inactive | inactive | 617 | 0.37 ± 0.05 | 28.2 | inactive | inactive | – | – | –
2 | CC[C@H](C)[C@H](NC(=O)[C@H](CCCNC(=N)N)NC(=O)[C@H](CCCNC(=N)N)NC(=O)[C@H](CC(C)C)NC(=O)[C@H](Cc1ccccc1)NC(=O)CNC(=O)CNC(=O)[C@@H](N)Cc1ccc(O)cc1)C(=O)N[C@@H](CCCNC(=N)N)C(=O)N1CCC[C@H]1C(=O)N[C@@H](CCCCN)C(=O)N[C@@H](CC(C)C)C(=O)N[C@@H](CCCCN)C(=O)N[C@@H](Cc1c[nH]c2ccccc12)C(=O)N[C@@H](CC(=O)O)C(=O)N[C@@H](CC(N)=O)C(=O)N[C@@H](CCC(N)=O)C(=O)O [dynorphin A, reference compound] | – | – | – | – | – | – | – | 0.99 ± 0.04 | – | – | –
3 | Cc1cc(O)cc(C)c1C[C@H](NC(=O)[C@@H]1Cc2ccccc2CN1C(=O)[C@@H]1CC(=O)NCCCC[C@@H](NC(=O)[C@@H]2Cc3ccccc3CN2C(=O)[C@@H](N)Cc2c(C)cc(O)cc2C)C(=O)N[C@@H](Cc2ccccc2)C(=O)N1)C(N)=O [compound 6, Dmt-Tic-c[D-Lys-Phe-Asp]-Tic-Dmt-NH2] (H-[Dmt][Tic][dK]FD[Tic][Dmt]-NH2; lactam 3-5) | 97.6 ± 1.2 | inactive | inactive | 331 | 0.17 ± 0.20 | 1.1 | inactive | inactive | – | – | –
4 | Cc1cc(O)cc(C)c1C[C@H](N)C(=O)N1Cc2ccccc2C[C@H]1C(=O)N[C@@H]1CNC(=O)C[C@@H](C(N)=O)NC(=O)[C@H](Cc2ccccc2)NC(=O)[C@H](Cc2ccccc2)NC1=O [compound 4, Dmt-Tic-c[D-Dap-Phe-Phe-Asp]NH2] (H-[Dmt][Tic][dDap]FFD-NH2; lactam 3-6) | 96.21 ± 0.89 | inactive | inactive | – | inactive | 2.45 | inactive | inactive | inactive | – | –
5 | CC1(C)SSC(C)(C)[C@@H](NC(=O)[C@@H](N)Cc2ccc(O)cc2)C(=O)NCC(=O)N[C@@H](Cc2ccccc2)C(=O)N[C@H]1C(=O)O [DPDPE, reference compound] | – | inactive | inactive | – | – | – | – | – | – | – | –
6 | Cc1cc(O)cc(C)c1C[C@H](N)C(=O)N1Cc2ccccc2C[C@H]1C(=O)N[C@@H]1CCCCNC(=O)C[C@@H](C(N)=O)NC(=O)[C@H](Cc2ccccc2)NC(=O)[C@H](Cc2ccccc2)NC1=O [compound 1, Dmt-Tic-c[D-Lys-Phe-Phe-Asp]NH2] (H-[Dmt][Tic][dK]FFD-NH2; lactam 3-6) | 97.88 ± 0.83 | – | 0.20 ± 0.06 | 661 | 0.15 ± 0.02 | 42.7 | inactive | inactive | – | 490 | –
7 | Cc1cc(O)cc(C)c1C[C@H](N)C(=O)N1Cc2ccccc2C[C@H]1C(=O)N[C@@H]1CCCCNC(=O)C[C@@H](C(N)=O)NC(=O)[C@H](Cc2ccccc2)NC1=O [compound 5, Dmt-Tic-c[D-Lys-Phe-Asp]NH2] (H-[Dmt][Tic][dK]FD-NH2; lactam 3-5) | 96.76 ± 0.91 | inactive | inactive | 813 | 0.3 ± 0.03 | 0.525 | inactive | inactive | – | – | least lipophilic
8 | C[C@@H](NC(=O)[C@@H](N)Cc1ccc(O)cc1)C(=O)N[C@@H](Cc1ccccc1)C(=O)NCC(=O)N[C@@H](Cc1ccc(O)cc1)C(=O)N1CCC[C@H]1C(=O)N[C@@H](CO)C(N)=O [dermorphin, reference compound] | – | inactive | inactive | – | 1.00 | – | inactive | inactive | – | – | –
9 | Cc1cc(O)cc(C)c1C[C@H](N)C(=O)N1Cc2ccccc2C[C@H]1C(=O)N[C@@H]1CCCCNC(=O)C[C@@H](C(N)=O)NC(=O)[C@H](Cc2ccc(F)cc2F)NC(=O)[C@H](Cc2ccccc2)NC1=O [compound 3, Dmt-Tic-c[D-Lys-Phe-2,4F2-Phe-Asp]NH2] (H-[Dmt][Tic][dK]F[Phe(2,4-F2)]D-NH2; lactam 3-6) | 95.19 ± 0.86 | – | – | – | – | – | – | – | – | – | –
